From US6013642A, “Use of estrone derivatives as steroid sulphatase inhibitors” (priority 1994, dated 2000)

Tests used:
[1] = tested on: collagen II-induced arthritis; experiment: Collagen II-induced arthritis in mice; assay type: in vivo, Male DBA/1 mice; conditions: FIG. 13; CT2251 10 mg/kg on day -1 and weekly
Protocol: Male DBA/1 mice were sensitised with type II collagen into the base of the tail in FCA in day 0. These animals received a further injection of CII in FICA (Freunds Incomplete Adjuvant) on day 18 and incidence and severity of arthritis assessed from day 25. Mice were randomised into 3 groups (n=10).

carrageenan pleurisy = experiment: Carrageenan pleurisy; assay type: in vivo, Wistar Rats; conditions: FIG. 14; CT2251 10 mg/kg p.o. at -24 h and -1 h; six hours
Protocol: Wistar Rats were anaesthetised and given intra-pleural injections of 0.5% carrageenan in saline at time 0. Six hours later the animals were killed and pleural cavity lavaged with 1 ml. citrated saline. Volume of fluid exudate and exudate cell concentration were measured. Animals were randomised to 5 treatment groups (n=6).

[2] = tested on: rat delayed type hypersensitivity model; experiment: Delayed type hypersensitivity in the rat; assay type: in vivo, Lewis rats; conditions: FIG. 12; CT2251 0.1, 1, 10 mg/kg s.c. days 0, 3 and 4; 24 and 48 h
Protocol: Lewis rats were sensitised with SRBC IV and challenged 4 days later with 10^8 SRBC into the footpad. The resulting swelling response was measured 24 and 48 h later. Rats were randomised into 5 groups (n=6-7) and steroids given on days 0, 3 and 4, subcutaneously. Results given as mean±sem.

[3] = tested on: mouse contact sensitisation model; experiment: Cellular infiltrate (anti-CD3 / anti-Mac-1 positive cells) in challenged ears, contact sensitisation; assay type: in vivo, mice; conditions: Experiment 7, FIG. 10, 24 h following challenge
Protocol: Animals were randomised into 7 groups (n=7-10) and steroids given on days 0 and 5. At 24 h following challenge, ears were removed, fixed and stained with either an anti-CD3 (T-cells) or anti-Mac-1 (monocytes/macrophages) antibody and the number of positive cells counted in 10 random fields.

U937 DHEAS sulphatase = target: T1, U937 DHEAS sulphatase (Homo sapiens, UniProt P08842); experiment: DHEAS sulphatase activity in U937 cell extracts; assay type: biochemical
T1 construct: DHEAS sulphatase activity in U937 cell extracts; endogenous in cells; host or cells: U937 cells (sonicate in Tris buffered saline with 1% Triton X-100)
T1 sequence (P08842 22-583): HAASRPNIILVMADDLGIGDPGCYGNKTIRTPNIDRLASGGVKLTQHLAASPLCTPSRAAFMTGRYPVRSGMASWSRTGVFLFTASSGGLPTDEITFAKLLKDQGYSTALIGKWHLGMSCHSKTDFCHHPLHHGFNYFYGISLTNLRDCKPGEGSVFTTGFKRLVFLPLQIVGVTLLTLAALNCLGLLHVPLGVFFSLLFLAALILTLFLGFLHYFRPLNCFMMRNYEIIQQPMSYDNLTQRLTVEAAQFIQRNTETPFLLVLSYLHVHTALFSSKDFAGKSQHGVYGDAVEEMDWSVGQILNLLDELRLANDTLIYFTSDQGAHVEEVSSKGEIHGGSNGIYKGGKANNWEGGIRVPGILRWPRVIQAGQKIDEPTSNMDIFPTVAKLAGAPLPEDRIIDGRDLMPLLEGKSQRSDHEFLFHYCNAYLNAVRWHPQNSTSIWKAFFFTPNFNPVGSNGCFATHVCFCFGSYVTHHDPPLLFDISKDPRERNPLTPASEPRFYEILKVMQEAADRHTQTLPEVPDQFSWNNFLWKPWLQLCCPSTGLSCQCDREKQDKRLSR
Protocol: c) DHEAS sulphatase activity in U937 cell extracts.
The inhibitors Ct 2211 and Ct 2251 were dissolved in 100% ethanol and 100% dimethyl sulphoxide (DMSO) respectively at stock concentrations of 20 mM. These were titrated in their respective solvents over a range of assay concentrations. The tritiated substrates DHEA sulphate and estrone sulphate were obtained from New England Nuclear and diluted in ethanol to give a final concentration of 70 nM for use in the assay. U937 cells were grown in RPLI containing 10% foetal bovine serum and harvested at a cell concentration of 1×10^6 /ml. These were washed in serum free medium stored at -70° C. at 1×10^8 /ml in Tris buffered saline pH7.4+1% triton X-100 and sonicated prior to use in the assay.
50 μl of substrate in ethanol was added to each assay tube and the solvent removed in a rotary vacuum evaporator. […] After centrifugation scintillation fluid was added to extract the desulphated substrate and the CPM present in an aliquot of the organic phase were counted using a beta counter.
In order to obtain total counts 10 μl of the aqueous fraction of the duplicate tubes containing only hot DHEA-s were counted after addition of scintillant and the total cpm calculated as follows: [formula] where vo +inhibitor-rate in the presence of inhibitor and vo -inhibitor=rate in the absence of inhibitor.
IC50 determined as described previously.

[4] = tested on: mouse contact sensitisation model; experiment: Contact sensitisation (oxazalone, ear swelling) in mice; assay type: in vivo
Protocol: 1. Contact Sensitisation (CS)
On day 0, mice were painted on their shaved right flank with 50 μl 2.5% oxazalone or vehicle (acetone 4:1 olive oil). On day 5 animals were challenged on their dorsal right ear surface with 25 μl of either 0.75% or 0.25% oxazalone. Prior to ear challenge, and 24, 48 and 72 hour post challenge ear thickness was measured using an engineer's micrometers. Ear swelling is determined as the difference in thickness prior and post challenge. The data are expressed as percentage change from the vehicle treated groups given sensitisation and challenge.
DHEA, DHEAS were administered at various times, generally at time of sensitisation (day 0) and time of challenge (day 3 or 4-DTH model, day 4 or 5-(CS-model) in order to obtain an augmentation of the immune response above non-steroid treated animals.
Different doses of the inhibitors have been used, and compared to the effect of dexamethasone as potential immunosuppressive/anti-inflammatory agents.

C[C@]12CC[C@@H]3c4ccc(OS(N)(=O)=O)cc4CC[C@H]3[C@@H]1CCC2=O [CT 2251, Estrone 3-0-sulphamate]
development of arthritis (incidence and severity) [1]: prevented the development of any disease | reduction of cell infiltrate (carrageenan pleurisy): 28% | reduction of exudate volume (carrageenan pleurisy): 43% | DTH footpad swelling response [2]: can also suppress a DTH response in rats | effect on DHEAS-augmented cell infiltrate ([3]; CT2251 10 mg/kg with DHEAS 5 mg/kg): effectively reversed | number of infiltrating CD3 positive cells, inhibitor on its own ([3]; CT2251 10 mg/kg): able to further reduce the number of infiltrating CD3 positive cells | IC50 (U937 DHEAS sulphatase): 40 nM | inhibition of U937 sulphatase with estrone sulphate as substrate (U937 DHEAS sulphatase; FIG. 3, estrone sulphate substrate): inhibit | normal ear swelling response, inhibitor on its own ([4]; Experiment 4, FIG. 7, CT2251 0.1 and 10 mg/kg s.c. days 0 and 4): significantly inhibited the normal ear swelling response | effect on DHEA-augmented ear swelling ([4]; Experiment 4, FIG. 7, CT2251 0.1 and 10 mg/kg with DHEA 5 mg/kg s.c. days 0 and 4): not that seen with DHEA | effect on DHEAS-augmented ear swelling ([4]; Experiment 4, FIG. 7, CT2251 0.1 and 10 mg/kg with DHEAS 5 mg/kg s.c. days 0 and 4): reversed the augmentation seen with DHEAS | degree of ear swelling ([4]; Experiment 5, FIG. 8, CT2251 0.001-0.3 mg/kg s.c. days 0 and 4, 24 h): inhibited by CT2251 treatment in a dose-dependent manner | inhibitory effect on ear swelling in presence of increasing substrate ([4]; Experiment 6, FIG. 9, CT2251 0.1 mg/kg with DHEAS 5, 15, 50 mg/kg days 0 and 4, 24 h): can be reverse by increasing doses of DHEAS | minimal effective dose ([4]; Mus musculus, sc, Experiment 5, FIG. 8, s.c. days 0 and 4, 24 h, read-out: effective dose for inhibition of ear swelling): ≥ 0.1 mg/kg
